Data on eight molecules can be found in US20130053310A1 (NOVO NORDISK A/S, priority 2010, published 2013).

The EC50 is the concentration needed to bring the measured effect to its halfway point.

Each structure is given as a SMILES string. Entries after “also recorded” stand apart in the source; their conditions may differ. Peptide text beside a SMILES is read from it.

The target in one data set is T1, glucagon receptor (Homo sapiens, UniProt P47871).
T1 construct: expressed in transfected cells
Briefly: Assay (I) Glucagon activity: cAMP biosensor (ACTOne) FLIPR assay in HEK-293 cells with cloned glucagon receptor. Type of data set: cell-based. The procedure: The cells (14000 per well) were incubated (37° C., 5% CO2) overnight in 384-well plates. Next day the cells were loaded with a calcium responsive dye that only distributed into the cytoplasm. Probenecid, an inhibitor of the organic anion transporter, was added to prevent the dye from leaving the cell. A PDE inhibitor was added to prevent formatted cAMP from being degraded. […] End point data were collected after 6 minutes. An increase in intracellular cAMP was proportional to an increased in calcium concentrations in the cytoplasm. When calcium was bound the dry a fluorescence signal was generated. EC50-values were calculated in Prism5.

The nature of data set [1]: Assay (II) ThT fibrillation assay for physical stability. Type of data set: physicochemical. As to conditions: shaking 960 rpm; for Assay (II) (pH 4.0) Lag time (hours): ThT fibrillation assay, pH 4.0, 250 μM, 10 mM glycylglycine, 45 hours at 37° C. From the text:
This has traditionally been measured by visual inspection of the sample. However, that kind of measurement is very subjective and depending on the observer. Therefore, the application of a small molecule indicator probe is much more advantageous.
Here, F is the ThT fluorescence at the time t. The constant t0 is the time needed to reach 50% of maximum fluorescence.
Few of those intermediates nucleate to form a template onto which further intermediates may assembly and the fibrillation proceeds. The lag-time corresponds to the interval in which the critical mass of nucleus is built up and the apparent rate constant is the rate with which the fibril itself is formed.
Samples were prepared freshly before each assay. […] The pH of the sample was adjusted to the desired value using appropriate amounts of concentrated NaOH and HCl. Thioflavin T was added to the samples from a stock solution in H2O to a final concentration of 1 μM.
The plate was sealed with Scotch Pad (Qiagen).
Each run was initiated by incubating the plate at the assay temperature for 10 min. The plate was measured every 20 minutes for a desired period of time. Between each measurement, the plate was shaken and heated as described.
The supernatant was filtered through a 0.22 μm filter and an aliquot was transferred to a HPLC vial.
The measurement points were saved in Microsoft Excel format for further processing and curve drawing and fitting was performed using GraphPad Prism.
The data set may be fitted to Eq. (1).

T1 sequence (P47871 26-477): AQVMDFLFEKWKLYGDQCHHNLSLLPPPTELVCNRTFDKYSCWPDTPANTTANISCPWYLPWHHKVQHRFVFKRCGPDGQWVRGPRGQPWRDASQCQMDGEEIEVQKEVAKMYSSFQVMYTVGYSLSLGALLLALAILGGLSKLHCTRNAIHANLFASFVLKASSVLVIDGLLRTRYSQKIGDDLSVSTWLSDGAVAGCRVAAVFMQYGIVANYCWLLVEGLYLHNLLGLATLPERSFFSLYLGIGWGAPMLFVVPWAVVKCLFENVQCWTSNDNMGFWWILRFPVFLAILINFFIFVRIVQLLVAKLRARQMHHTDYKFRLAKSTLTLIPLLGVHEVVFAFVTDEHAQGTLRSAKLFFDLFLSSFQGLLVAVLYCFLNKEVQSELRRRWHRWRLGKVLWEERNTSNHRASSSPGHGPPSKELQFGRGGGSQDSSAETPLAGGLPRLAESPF

Molecule `CC(C)C[C@H](NC(=O)[C@H](Cc1ccc(O)cc1)NC(=O)[C@H](CCCCN)NC(=O)[C@H](CO)NC(=O)[C@H](Cc1ccc(O)cc1)NC(=O)[C@H](CC(=O)O)NC(=O)[C@H](CO)NC(=O)[C@@H](NC(=O)[C@H](Cc1ccccc1)NC(=O)[C@@H](NC(=O)CNC(=O)[C@H](CCC(N)=O)NC(=O)[C@H](CO)NC(=O)[C@@H](N)Cc1c[nH]cn1)[C@@H](C)O)[C@@H](C)O)C(=O)N[C@@H](CC(=O)O)C(=O)N[C@@H](CO)C(=O)N[C@@H](CCCNC(=N)N)C(=O)N[C@@H](CCCNC(=N)N)C(=O)N[C@@H](C)C(=O)N[C@@H](CCC(N)=O)C(=O)N[C@@H](CC(=O)O)C(=O)N[C@@H](Cc1ccccc1)C(=O)N[C@H](C(=O)N[C@@H](CCC(N)=O)C(=O)N[C@@H](Cc1ccc(OP(=O)(O)O)cc1)C(=O)N[C@@H](CC(C)C)C(=O)N[C@@H](CC(C)C)C(=O)N[C@@H](CC(N)=O)C(=O)N[C@H](C(=O)O)[C@@H](C)O)C(C)C` [Example 2, [(O-phosphono)Tyr^25,Leu^27]Glucagon] registered an EC50 at glucagon receptor of 0.017 nM.
The molecule `CC(C)C[C@H](NC(=O)[C@H](Cc1ccc(O)cc1)NC(=O)[C@H](CCCCN)NC(=O)[C@H](CO)NC(=O)[C@H](Cc1ccc(O)cc1)NC(=O)[C@H](CC(=O)O)NC(=O)[C@H](CO)NC(=O)[C@@H](NC(=O)[C@H](Cc1ccccc1)NC(=O)[C@@H](NC(=O)CNC(=O)[C@H](CCC(N)=O)NC(=O)[C@H](CO)NC(=O)[C@@H](N)Cc1c[nH]cn1)[C@@H](C)O)[C@@H](C)O)C(=O)N[C@@H](CCC(=O)O)C(=O)N[C@@H](CO)C(=O)N[C@@H](CCCNC(=N)N)C(=O)N[C@@H](CCCNC(=N)N)C(=O)N[C@@H](C)C(=O)N[C@@H](CCC(N)=O)C(=O)N[C@@H](CCC(=O)O)C(=O)N[C@@H](Cc1ccccc1)C(=O)N[C@H](C(=O)N[C@@H](CCC(N)=O)C(=O)N[C@@H](CCCNC(=N)N)C(=O)N[C@@H](CC(C)C)C(=O)N[C@@H](CC(C)C)C(=O)N[C@@H](CC(N)=O)C(=O)N[C@H](C(=O)O)[C@@H](C)O)C(C)C` [Example 10, [Glu^15, Glu^21, Arg^25, Leu^27]-Glucagon] (H-HSQGTFTSDYSKYLESRRAQEFVQRLLNT-OH) yielded an EC50 at glucagon receptor of 0.266 nM. Besides, the Assay (II) (pH 4.0) Lag time (hours) in data set [1] was > 45 hours.
The like results for `CC(C)C[C@H](NC(=O)[C@H](Cc1ccc(O)cc1)NC(=O)[C@H](CCCCN)NC(=O)[C@H](CO)NC(=O)[C@H](Cc1ccc(O)cc1)NC(=O)[C@H](CC(=O)O)NC(=O)[C@H](CO)NC(=O)[C@@H](NC(=O)[C@H](Cc1ccccc1)NC(=O)[C@@H](NC(=O)CNC(=O)[C@H](CCC(N)=O)NC(=O)[C@H](CO)NC(=O)[C@@H](N)Cc1c[nH]cn1)[C@@H](C)O)[C@@H](C)O)C(=O)N[C@@H](CC(=O)O)C(=O)N[C@@H](CO)C(=O)N[C@@H](CCCNC(=N)N)C(=O)N[C@@H](CCCNC(=N)N)C(=O)N[C@@H](C)C(=O)N[C@@H](CCC(N)=O)C(=O)N[C@@H](CCC(=O)O)C(=O)N[C@@H](Cc1ccccc1)C(=O)N[C@H](C(=O)N[C@@H](CCC(N)=O)C(=O)N[C@@H](CCCNC(=N)N)C(=O)N[C@@H](CC(C)C)C(=O)N[C@@H](CC(C)C)C(=O)N[C@@H](CO)C(=O)N[C@H](C(=O)O)[C@@H](C)O)C(C)C` [Example 6, [Glu^21, Arg^25, Leu^27, Ser^28]-Glucagon] were, in that order, 0.026 nM and > 45 hours.
With `CC(C)C[C@H](NC(=O)[C@H](Cc1ccc(O)cc1)NC(=O)[C@H](CCCCN)NC(=O)[C@H](CO)NC(=O)[C@H](Cc1ccc(O)cc1)NC(=O)[C@H](CC(=O)O)NC(=O)[C@H](CO)NC(=O)[C@@H](NC(=O)[C@H](Cc1ccccc1)NC(=O)[C@@H](NC(=O)CNC(=O)[C@H](CCC(N)=O)NC(=O)[C@H](CO)NC(=O)[C@@H](N)Cc1c[nH]cn1)[C@@H](C)O)[C@@H](C)O)C(=O)N[C@@H](CC(=O)O)C(=O)N[C@@H](CO)C(=O)N[C@@H](CCCNC(=N)N)C(=O)N[C@@H](CCCNC(=N)N)C(=O)N[C@@H](C)C(=O)N[C@@H](CCC(N)=O)C(=O)N[C@@H](CC(=O)O)C(=O)N[C@@H](Cc1ccccc1)C(=O)N[C@H](C(=O)N[C@@H](CCC(N)=O)C(=O)N[C@@H](CCCNC(=N)N)C(=O)N[C@@H](CC(C)C)C(=O)N[C@@H](CC(C)C)C(=O)N[C@@H](CC(N)=O)C(=O)N[C@H](C(=O)O)[C@@H](C)O)C(C)C` [Example 5, [Arg^25, Leu^27]-Glucagon], it took 0.057 nM to reach a half-maximal effect on glucagon receptor (EC50). In addition, the Assay (II) (pH 4.0) Lag time (hours) in data set [1] was > 45 hours.
Molecule `CC(C)C[C@H](NC(=O)[C@H](Cc1ccc(O)cc1)NC(=O)[C@H](CCCCN)NC(=O)[C@H](CO)NC(=O)[C@H](Cc1ccc(O)cc1)NC(=O)[C@H](CC(=O)O)NC(=O)[C@H](CO)NC(=O)[C@@H](NC(=O)[C@H](Cc1ccccc1)NC(=O)[C@@H](NC(=O)CNC(=O)[C@H](CCC(N)=O)NC(=O)[C@H](CO)NC(=O)[C@@H](N)Cc1c[nH]cn1)[C@@H](C)O)[C@@H](C)O)C(=O)N[C@@H](CC(=O)O)C(=O)N[C@@H](CO)C(=O)N[C@@H](CCCNC(=N)N)C(=O)N[C@@H](CCCNC(=N)N)C(=O)N[C@@H](C)C(=O)N[C@@H](CCC(N)=O)C(=O)N[C@@H](CCC(=O)O)C(=O)N[C@@H](Cc1ccccc1)C(=O)N[C@H](C(=O)N[C@@H](CCC(N)=O)C(=O)N[C@@H](CCCCN)C(=O)N[C@@H](CC(C)C)C(=O)N[C@@H](CC(C)C)C(=O)N[C@@H](CC(N)=O)C(=O)N[C@H](C(=O)O)[C@@H](C)O)C(C)C` [Example 9, [Glu^21, Lys^25, Leu^27]-Glucagon] came in with a 50% effective concentration (EC50) on glucagon receptor of 0.043 nM. Also, the Assay (II) (pH 4.0) Lag time (hours) in data set [1] was > 45 hours.
Molecule `CC(C)C[C@H](NC(=O)[C@H](Cc1ccc(O)cc1)NC(=O)[C@H](CCCCN)NC(=O)[C@H](CO)NC(=O)[C@H](Cc1ccc(O)cc1)NC(=O)[C@H](CC(=O)O)NC(=O)[C@H](CO)NC(=O)[C@@H](NC(=O)[C@H](Cc1ccccc1)NC(=O)[C@@H](NC(=O)CNC(=O)[C@H](CCC(N)=O)NC(=O)[C@H](CO)NC(=O)[C@@H](N)Cc1c[nH]cn1)[C@@H](C)O)[C@@H](C)O)C(=O)N[C@@H](CC(=O)O)C(=O)N[C@@H](CO)C(=O)N[C@@H](CCCNC(=N)N)C(=O)N[C@@H](CCCNC(=N)N)C(=O)N[C@@H](C)C(=O)N[C@@H](CCC(N)=O)C(=O)N[C@@H](CCC(=O)O)C(=O)N[C@@H](Cc1ccccc1)C(=O)N[C@H](C(=O)N[C@@H](CCC(N)=O)C(=O)N[C@@H](CCCNC(=N)N)C(=O)N[C@@H](CC(C)C)C(=O)N[C@@H](CC(C)C)C(=O)N[C@@H](CC(N)=O)C(=O)N[C@H](C(=O)O)[C@@H](C)O)C(C)C` [Example 1, [Glu^21, Arg^25, Leu^27]Glucagon] showed an EC50 at glucagon receptor of 0.017 nM. Further, in data set [1] (250 μM in 1 μM ThT, 10 mM glycylglycine buffer pH 4.0, 45 hours at 37° C.), the “ThT emission / fibrillation upon physical stress” value is on record as “does not fibrillate; also recorded: no ThT emission occurred”.
On glucagon receptor, `CC(C)C[C@H](NC(=O)[C@H](Cc1ccc(O)cc1)NC(=O)[C@H](CCCCN)NC(=O)[C@H](CO)NC(=O)[C@H](Cc1ccc(O)cc1)NC(=O)[C@H](CC(=O)O)NC(=O)[C@H](CO)NC(=O)[C@@H](NC(=O)[C@H](Cc1ccccc1)NC(=O)[C@@H](NC(=O)CNC(=O)[C@H](CCC(N)=O)NC(=O)[C@H](CO)NC(=O)[C@@H](N)Cc1c[nH]cn1)[C@@H](C)O)[C@@H](C)O)C(=O)N[C@@H](CC(=O)O)C(=O)N[C@@H](CO)C(=O)N[C@@H](CCCNC(=N)N)C(=O)N[C@@H](CCCNC(=N)N)C(=O)N[C@@H](C)C(=O)N[C@@H](CCC(N)=O)C(=O)N[C@@H](CC(=O)O)C(=O)N[C@@H](Cc1ccccc1)C(=O)N[C@H](C(=O)N[C@@H](CCC(N)=O)C(=O)N[C@@H](CCCNC(=N)N)C(=O)N[C@@H](CC(C)C)C(=O)N[C@@H](CC(C)C)C(=O)N[C@@H](CCC(=O)O)C(=O)N[C@H](C(=O)O)[C@@H](C)O)C(C)C` [Example 11, [Arg^25, Leu^27, Glu^28]-Glucagon] returned an EC50 of 0.037 nM. The Assay (II) (pH 4.0) Lag time (hours) in data set [1] is > 45 hours.
For the molecule `CC(C)C[C@H](NC(=O)[C@H](Cc1ccc(O)cc1)NC(=O)[C@H](CCCCN)NC(=O)[C@H](CO)NC(=O)[C@H](Cc1ccc(O)cc1)NC(=O)[C@H](CC(=O)O)NC(=O)[C@H](CO)NC(=O)[C@@H](NC(=O)[C@H](Cc1ccccc1)NC(=O)[C@@H](NC(=O)CNC(=O)[C@H](CCC(N)=O)NC(=O)[C@H](CO)NC(=O)[C@@H](N)Cc1c[nH]cn1)[C@@H](C)O)[C@@H](C)O)C(=O)N[C@@H](CC(=O)O)C(=O)N[C@@H](CO)C(=O)N[C@@H](CCCNC(=N)N)C(=O)N[C@@H](CCCNC(=N)N)C(=O)N[C@@H](C)C(=O)N[C@@H](CCC(N)=O)C(=O)N[C@@H](CC(=O)O)C(=O)N[C@@H](Cc1ccccc1)C(=O)N[C@H](C(=O)N[C@@H](CCC(N)=O)C(=O)N[C@@H](Cc1c[nH]cn1)C(=O)N[C@@H](CC(C)C)C(=O)N[C@@H](CC(C)C)C(=O)N[C@@H](CC(N)=O)C(=O)N[C@H](C(=O)O)[C@@H](C)O)C(C)C` [Example 7, [His^25, Leu^27]-Glucagon], the response on glucagon receptor was half-maximal at 0.019 nM (EC50). Also, the Assay (II) (pH 4.0) Lag time (hours) in data set [1] is > 45 hours.
